# According to PMC4628094, “In Vitro Assessment of Uptake and Lysosomal Sequestration of Respiratory Drugs in Alveolar Macrophage Cell Line NR8383” (Pharmaceutical Research, 2015):
# Like-named read-outs stand apart in the source and are kept apart here. Marks after values point to notes of the source that are not given here.
# Legend:
# [1] = test system: Lung tissue slices from male Wistar rats; design: method as in ref (8) (a number printed in a supplementary file, which may have a reference list of its own: not looked up in the article's list); settings: NH4Cl 20 mM, drug 5 µM, 60 min, ref (8); cited from earlier work
# [2] = test system: Lung granule fraction containing lysosomes from male Wistar rats; design: method as in ref (6) (a number printed in a supplementary file, which may have a reference list of its own: not looked up in the article's list); settings: NH4Cl 10 mM, drug 1 µM, 10 min; ref (6); cited from earlier work
# [3] = test system: NR8383 cells; experiment: Accumulation (Kp) in NR8383 over a concentration range, two-site binding model; settings: apparent saturable uptake equilibrium constant, two-site binding model, control
# [4] = test system: Lysosomes isolated from male Wistar rat liver; design: method as in ref (16) (a number printed in a supplementary file, which may have a reference list of its own: not looked up in the article's list); settings: nigericin […], drug 1 µM, 20 min, ref (16), cited from earlier work
# [5] = test system: NR8383 cells
# [6] = test system: isolated perfused lungs of rats; settings: depending on concentration, ref ([37],[43],[44]); cited from earlier work
# [7] = test system: Liver tissue slices from male Wistar rats; design: method as in ref (9) (a number printed in a supplementary file, which may have a reference list of its own: not looked up in the article's list); settings: NH4Cl 20 mM, drug 5 µM, 60 min, ref (9); cited from earlier work
# [8] = test system: Lung tissue slices from male Wistar rats; design: method as in ref (9) (a number printed in a supplementary file, which may have a reference list of its own: not looked up in the article's list); settings: NH4Cl 20 mM, drug 5 µM, 60 min, ref (9); cited from earlier work
# [9] = test system: Liver tissue slices from male Wistar rats; design: method as in ref (8) (a number printed in a supplementary file, which may have a reference list of its own: not looked up in the article's list); settings: NH4Cl 20 mM, drug 5 µM, 60 min, ref (8); cited from earlier work
# [10] = test system: Lysosomes isolated from male Wistar rat liver; design: method as in ref (4) (a number printed in a supplementary file, which may have a reference list of its own: not looked up in the article's list); settings: 10 min, ref (4), cited from earlier work
# [11] = test system: Liver tissue slices from male Wistar rats; design: method as in ref (5) (a number printed in a supplementary file, which may have a reference list of its own: not looked up in the article's list); settings: NH4Cl 20 mM, drug 5 µM, 60 min, ref (5); cited from earlier work
# [12] = test system: Primary rat cerebellar neurons; design: method as in ref (15) (a number printed in a supplementary file, which may have a reference list of its own: not looked up in the article's list); settings: drug 10^-4 µM, 30 min, ref (15), cited from earlier work
# [13] = test system: Liver tissue slices from male Wistar rats; design: method as in ref (14) (a number printed in a supplementary file, which may have a reference list of its own: not looked up in the article's list); settings: monensin 10 µM, drug 5 µM, 60 min, ref (14); cited from earlier work
# [14] = test system: Brain slices from male Wistar rats; design: method as in ref (10) (a number printed in a supplementary file, which may have a reference list of its own: not looked up in the article's list); settings: drug 5 µM, 60 min, ref (10), cited from earlier work
# [15] = test system: Lung tissue slices from male Wistar rats; design: method as in ref (5) (a number printed in a supplementary file, which may have a reference list of its own: not looked up in the article's list); settings: NH4Cl 20 mM, drug 5 µM, 60 min, ref (5); cited from earlier work
# [16] = test system: Lung tissue slices from male Wistar rats; design: method as in ref (14) (a number printed in a supplementary file, which may have a reference list of its own: not looked up in the article's list); settings: monensin 10 µM, drug 5 µM, 60 min, ref (14); cited from earlier work
# [17] = test system: NR8383 cell line; design: method as in ref (11) (a number printed in a supplementary file, which may have a reference list of its own: not looked up in the article's list); settings: NH4Cl 10 mM, drug 50 µM, 120 min; ref (11); cited from earlier work
structure (smiles),measurement,setting,value
CN(C)CCCN1c2ccccc2CCc2ccccc21 [Imipramine],Reduction in total uptake (%),[1],35%
same,Reduction in total uptake (%),[2],31%
same,KU1,[3],0.9 ± 0.3 µM
same,Reduction of total uptake (%),[4]; relative to control with ATP,99%
same,Reduction of total uptake (%),[4]; relative to control without ATP,93%
same,cytotoxicity (LDH) compared to positive control,[5]; drug 50 μM,less than 1%
same,cytotoxicity (LDH) compared to positive control,[5]; drug 100 μM,less than 1%
same,estimated Kp,[6],17–44
same,Reduction in total uptake (%),[7],62%
same,Reduction in total uptake (%),[8],49%
same,Reduction in total uptake (%),[9],57%
same,Reduction in total uptake (%),"[10]; NH4Cl 50 mM, drug 10^-4 µM",70^b %
same,Reduction of total uptake (%),"[10]; nigericin 50 µM, drug 0.001 µM",70^b %
same,Reduction in total uptake (%),[11],58%
same,Reduction of total uptake (%),[12]; monensin 10 µM,83%
same,Reduction of total uptake (%),[12]; monensin […],50%
same,Reduction of total uptake (%),[13],48%
same,Reduction in total uptake (%),[14]; NH4Cl 20 mM,41%
same,Reduction of total uptake (%),[14]; monensin 10 µM,37%
same,Reduction in total uptake (%),[15],59%
same,Reduction of total uptake (%),[16],64%
CC[C@H]1OC(=O)[C@H](C)C(=O)[C@H](C)[C@@H](O[C@@H]2O[C@H](C)C[C@H](N(C)C)[C@H]2O)[C@](C)(OC)C[C@@H](C)C(=O)[C@H](C)[C@H]2N(CCCCn3cnc(-c4cccnc4)c3)C(=O)O[C@]12C [Telithromycin],Reduction in total uptake (%),[17],80^b %
